In patent US8088727B2, “Method for reducing the risk, lessening the symptom, or delaying the onset of insulin resistance by administering SS-31” (Cornell University, priority 2008, dated 2012):
Square brackets hold non-standard residues; d marks the D form. Ends that are not written are not given here. Peptide text beside a SMILES is read from it. Dmt = Cc1cc(O)cc(C)c1C[C@H](N)C(=O)O

Assays:
mu-opioid receptor = mu-opioid receptor (Homo sapiens, UniProt P35372); conditions: cited from earlier work
[1] = system: several mammalian cell types; conditions: several mammalian cell types (Zhao et al. 2003); cited from earlier work
[2] = system: mitochondrial H2O2 emission in permeabilized skeletal muscle fiber bundles; assay: Mitochondrial H2O2 emission in permeabilized skeletal muscle fiber bundles, SS-31 dose response in vitro; assay type: cell-based, rat; conditions: dose response curve in vitro (FIG. 3A), succinate-supported respiration
Protocol: Preparation of permeabilized muscle fiber bundles. Briefly, small portions (25 mg) of soleus, RG, and WG muscle were dissected and placed in ice-cold buffer X, containing 60 mM K-MES, 35 mM KCl, 7.23 mM K2 EGTA, 2.77 mM CaK2EGTA, 20 mM imidazole, 0.5 mM DTT, 20 mM taurine, 5.7 mM ATP, 15 mM PCr, and 6.56 mM MgCl2·6H2O (pH 7.1, 295 mosmol/kg H2O). The muscle was trimmed of connective tissue and cut down to fiber bundles (2×7 mm, 4-8 mg wet wt). With a pair of needle-tipped forceps under a dissecting microscope, fibers were gently separated from one another to maximize surface area of the fiber bundle, leaving only small regions of contact. […]
Mitochondrial respiration and H2O2 emission measurements. […] Mitochondrial H2O2 emission was measured at 30° C. during state 4 respiration in Buffer Z (10 μg/ml oligomycin) by continuously monitoring oxidation of Amplex Red using a Spex Fluoromax 3 (Jobin Yvon, Ltd.) spectrofluorometer with temperature control and magnetic stirring at >1000 rpm. […] After baseline fluorescence (reactants only) was established, the reaction was initiated by addition of a permeabilized fiber bundle to 300 μl of buffer Z containing 5 μM Amplex Red and 0.5 U/ml HRP, with succinate at […]. […] The rate of respiration is expressed as pmol·s^−1·mg dry weight^−1, and mitochondrial H2O2 emission expressed as pmol·min^−1·mg dry weight^−1. […]

[3] = system: skeletal muscle mitochondrial H2O2 emission of high fat fed rats; assay: Mitochondrial H2O2 emission in permeabilized fibers from high fat fed rats given SS-31; assay type: in vivo, rat; conditions: for increase in mitochondrial oxidant emitting potential: high fat diet (60%) six weeks
Excerpt: (§1) Next, rats were placed on a high fat diet (60%) for six weeks with or without daily administration of SS-31.

[4] = system: skeletal muscle mitochondrial respiration of high fat fed rats; assay: Mitochondrial respiration in permeabilized fibers from high fat fed rats given SS-31; assay type: in vivo, rat
Excerpt: as §1

[5] = rat, in vivo
Excerpt: as §1

[6] = system: intracellular redox environment in skeletal muscle; assay: Total glutathione and GSH/GSSG ratio in skeletal muscle of high fat fed rats; assay type: in vivo, rat
Protocol: Protein homogenates were prepared by homogenizing 100 mg of powered frozen muscle in a buffer containing in mM: 10 Tris, 1 EDTA, 1 EGTA, 2 NaOrthovanadate, 2 NaPyrophosphate, 5 NaF, protease inhibitor cocktail (Complete) at pH 7.2. After homogenization, 1% Triton X-100 was added to the protein suspension, cotexed and allowed to sit on ice for 5 minutes. The tubes were then spun at 10,000 rpm for 10 minutes to pellet the insoluble debris. For GSSG measurement, tissue was homogenized in a solution containing 20 mM Methyl-2-vinylpyridinium triflate to scavenge all reduced thiols in the sample. Total GSH and GSSG were then measured using the reagents and calibration set provided by the GSH/GSSG assay (Oxis Research) according to the manufacturer's instructions, with small modifications as needed.
To establish a link between the increased mitochondrial oxidant emission brought about by high fat diet and its effect on overall redox environment of skeletal muscle, both GSH and GSSG were measured in skeletal muscle of chow fed and high fat fed rats under two conditions; after a 10 h fast and 1 h after administration of a standard glucose load (oral gavage, 10 h fasted). […]

[7] = system: high fat diet-induced insulin resistance; assay: Oral glucose tolerance test after six week high fat diet; assay type: in vivo, rat
Protocol: To determine whether mitochondrial-derived changes in intracellular redox environment may be linked to the etiology of high fat diet-induced insulin resistance, oral glucose tolerance tests were performed in rats after the six week high fat diet. On the day of experiments, food was removed 10 hr prior to administration of a 2 g/kg glucose solution via gavage. Glucose levels were determined on whole blood samples (Lifescan, Milpitas, Calif.). Serum insulin levels were determined via a rat/mouse ELISA kit (Linco Research, St. Charles, Mo.). Fasting data were used to determine homeostatic model assessment (HOMA)-calculated as fasting insulin (μU/ml) x fasting glucose (mM)/22.5.

Akt = Akt phosphorylation in skeletal muscle after oral glucose load; assay type: in vivo, rat; conditions: skeletal muscle of high fat fed rats, 1 h after oral glucose load (FIGS. 4E and 4F)
Protocol: Increased homeostatic model assessment (HOMA, FIG. 4C), and greater area under the curves for both blood glucose and insulin (FIG. 4D) confirmed the development of insulin resistance in high fat fed rats. […] To further assess insulin sensitivity, the phosphorylation state of the insulin signaling protein Akt in skeletal muscle from animals was measured after a 10 h fast or 1 h after receiving an oral glucose load. In response to glucose ingestion, Akt phosphorylation increased ˜5-fold in skeletal muscle of chow-fed controls but was unchanged in high fat fed rats (FIGS. 4E and 4F), confirming the presence of insulin resistance at the level of insulin signaling.

fatty (fa/fa) Zucker rat = conditions: SS-31 1.0-5.0 mg/kg i.p. or oral, approximately 6 weeks
Protocol: Measured outcomes include body weight, fasting glucose/insulin/free fatty acid, glucose tolerance (OGTT), in vitro muscle insulin sensitivity (incubation), markers of insulin signaling (Akt-P, IRS-P), mitochondrial function studies on permeabilized fibers (respiration, H2O2 emission), markers of intracellular oxidative stress (lipid peroxidation, GSH/GSSG ratio, aconitase activity) and mitochondrial enzyme activity. […] Successful prevention of insulin resistance by the aromatic-cationic peptides of the invention is indicated by a reduction in one or more of the markers associated with insulin resistance or mitochondrial dysfunction enumerated above.
Measured outcomes include body weight, fasting glucose/insulin/free fatty acid, glucose tolerance (OGTT), in vitro muscle insulin sensitivity (incubation), markers of insulin signaling (Akt-P, IRS-P), mitochondrial function studies on permeabilized fibers (respiration, H2O2 emission), markers of intracellular oxidative stress (lipid peroxidation, GSH/GSSG ratio, aconitase activity) and mitochondrial enzyme activity. […] Successful treatment of insulin resistance by the aromatic-cationic peptides of the invention is indicated by a reduction in one or more of the markers associated with insulin resistance or mitochondrial dysfunction enumerated above.

[8] = system: mitochondrial inner membrane; conditions: while scavenging ROS; cited from earlier work
[9] = system: hearts subjected to myocardial stunning; conditions: hearts subjected to myocardial stunning (Zhao et al. 2004); cited from earlier work
pancreatic islet cells = pancreatic islet cells after transplantation (Thomas et al. 2005); cited from earlier work
[10] = system: animal models of Parkinson's and amyotrophic lateral sclerosis disease; conditions: animal models of Parkinson's and amyotrophic lateral sclerosis disease (Petri et al. 2006; Szeto et al. 2006); cited from earlier work

Sequence of mu-opioid receptor (P35372 whole entry, species assumed): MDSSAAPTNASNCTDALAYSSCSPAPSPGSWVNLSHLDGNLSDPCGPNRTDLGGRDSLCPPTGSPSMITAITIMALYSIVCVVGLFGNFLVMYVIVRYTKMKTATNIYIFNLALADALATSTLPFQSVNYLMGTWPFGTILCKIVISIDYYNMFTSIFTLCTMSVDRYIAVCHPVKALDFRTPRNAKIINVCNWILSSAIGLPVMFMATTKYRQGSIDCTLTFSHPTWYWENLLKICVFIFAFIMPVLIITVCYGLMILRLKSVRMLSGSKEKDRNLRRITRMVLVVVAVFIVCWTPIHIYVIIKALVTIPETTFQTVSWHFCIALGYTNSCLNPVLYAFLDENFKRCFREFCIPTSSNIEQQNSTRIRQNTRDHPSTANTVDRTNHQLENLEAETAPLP

## Tyr-D-Arg-Phe-Lys-NH2 [SS-01]
mu-opioid receptor
  mu-opioid receptor agonist activity: has mu-opioid receptor agonist activity

## 2′,6′-Dmt-D-Arg-Phe-Lys-NH2 [SS-02]
[1]
  penetration of the plasma membrane: readily penetrates

## Cc1cc(O)cc(C)c1C[C@H](NC(=O)[C@H](N)CCCNC(=N)N)C(=O)N[C@@H](CCCCN)C(=O)N[C@@H](Cc1ccccc1)C(N)=O [SS-31, D-Arg-2′6′Dmt-Lys-Phe-NH2] (H-[dR][Dmt]KF-NH2)
[2]
  reduction in mitochondrial H2O2 emission: greater than 50%
[3]; dose response curve in vivo (FIG. 3B), succinate-supported respiration
  reduction in mitochondrial H2O2 emission: greater than 50%
[3]; palmitoyl-carnitine supported respiration, daily SS-31 (FIG. 3D)
  increase in mitochondrial oxidant emitting potential: completely prevented
[3]; succinate supported respiration, daily SS-31 (FIG. 3C)
  increase in mitochondrial oxidant emitting potential: completely prevented
[4]; palmitoyl-carnitine-supported, high fat fed rats (FIG. 3F)
  basal rate of respiration: not affected
[4]; pyruvate/malate-supported, high fat fed rats (FIG. 3E)
  basal rate of respiration: not affected
[5]
  weight gain: did not affect
[6]; high fat fed rats, 10 h fast and 1 h after glucose ingestion (FIG. 3H)
  GSH/GSSG ratio: preserved the GSH/GSSG ratio near control levels
[6]; high fat feeding with SS-31 treatment, skeletal muscle (FIG. 3G)
  reduction in total cellular glutathione content (GSHT): ~30%
[7]; high fat fed rats (FIGS. 4C and 4D)
  development of insulin resistance (HOMA, area under the curves for blood glucose and insulin): completely blocked
[7]; high fat fed rats, 2 g/kg glucose by gavage (FIG. 4A)
  blood glucose response to the oral glucose challenge: normalized
[7]; high fat fed rats, 2 g/kg glucose by gavage (FIG. 4B)
  insulin response to the oral glucose challenge: normalized
Akt
  Akt phosphorylation in response to glucose ingestion: completely preserved
Fatty (fa/fa) Zucker rat; Zucker rats (~12 weeks of age)
  whole body and muscle insulin resistance: ameliorate or reduce
Fatty (fa/fa) Zucker rat; young Zucker rats (~3-4 weeks of age)
  development of whole body and muscle insulin resistance: attenuate or prevent
mu-opioid receptor
  mu-opioid receptor agonist activity: does not have mu-opioid receptor agonist activity
[8]
  effect on membrane potential or respiratory control: without affecting
[9]
  ROS: effectively reduce ROS
Pancreatic islet cells
  ROS: effectively reduce ROS
[10]
  ROS: effectively reduce ROS

## F[dR]FK-NH2 [SS-20]
mu-opioid receptor
  mu-opioid receptor agonist activity: does not have mu-opioid receptor agonist activity
